Laboratory results published in publication PMC6639057 (Investigational new drugs, 2018).
“And” between values parts separate entries of the source, which are not always exact repeats. Equal values may be shown once.

Test system: patients with advanced solid tumors
Assay: Adverse events
[1] = all patients, dose escalation and dose expansion (N = 105)
[2] = escalation 30 mg + G-CSF (n = 6)
[3] = escalation 35 mg + G-CSF (n = 3)

Cc1csc(-c2nnc(Nc3ccc(Oc4ncccc4-c4ccnc(N)n4)cc3)c3ccccc23)c1 [AMG 900]
AEs leading to discontinuation of AMG 900 (Total (N = 105)): 25 (24) n (%)
All treatment-emergent AEs (Total (N = 105)): 105 (100) n (%)
All treatment-related AEs (Total (N = 105)): 98 (93) n (%)
Fatal AEs (Total (N = 105)): 5 (5) n (%)
Grade ≥ 3 AEs (Total (N = 105)): 79 (75) n (%)
Grade ≥ 3 treatment-related AEs (Total (N = 105)): 61 (58) n (%)
Grade ≥ 3 treatment-related AEs: Anemia (Total (N = 105)): 24 (23) n (%)
Grade ≥ 3 treatment-related AEs: Diarrhea (Total (N = 105)): 4 (4) n (%)
Grade ≥ 3 treatment-related AEs: Fatigue (Total (N = 105)): 5 (5) n (%)
Grade ≥ 3 treatment-related AEs: Febrile neutropenia (Total (N = 105)): 10 (10) n (%)
Grade ≥ 3 treatment-related AEs: Hemoglobin decreased (Total (N = 105)): 4 (4) n (%)
Grade ≥ 3 treatment-related AEs: Leukopenia (Total (N = 105)): 15 (14) n (%)
Grade ≥ 3 treatment-related AEs: Lymphopenia (Total (N = 105)): 4 (4) n (%)
Grade ≥ 3 treatment-related AEs: Nausea (Total (N = 105)): 3 (3) n (%)
Grade ≥ 3 treatment-related AEs: Neutropenia (Total (N = 105)): 44 (42) n (%)
Grade ≥ 3 treatment-related AEs: Thrombocytopenia (Total (N = 105)): 13 (12) n (%)
Grade ≥ 3 treatment-related AEs: Vomiting (Total (N = 105)): 2 (2) n (%)
Grade ≥ 3 treatment-related AEs: White blood cell count decreased (Total (N = 105)): 2 (2) n (%)
Grade ≥ 4 AEs (Total (N = 105)): 40 (38) n (%)
Serious AEs (Total (N = 105)): 39 (37) n (%)
Treatment-related AEs that led to discontinuation of AMG 900 (all patients (13 patients)): 12%
Treatment-related grade ≥ 4 AEs (all patients (31 patients)): 30%
Dose reductions or interruptions due to AEs (all patients (47 patients)): 45%
Dose reductions or interruptions (all patients (51 patients)): 49%
Treatment-related grade ≥ 3 AEs (all patients (61 patients)): 58%
Fatal AEs (all patients (five patients)): 5%
Grade ≥ 4 diarrhea (only nonhematologic grade ≥ 4 AE) (all patients (n = 1)): 1%
Treatment-related grade ≥ 4 leukopenia (all patients (n = 12)): 11%
Discontinuation of AMG 900 due to AEs (all patients (n = 25), data cutoff December 31, 2014): 24%
Treatment-related grade ≥ 4 neutropenia (all patients (n = 30)): 29%
Grade ≥ 3 treatment-related anemia [1]: 23%
Grade ≥ 3 treatment-related leukopenia [1]: 14%
Grade ≥ 3 treatment-related neutropenia [1]: 37% and 42%
Grade ≥ 3 treatment-related thrombocytopenia [1]: 12%
Relation of fatal AEs to treatment (as judged by the investigator): none of the fatal AEs were considered treatment related
AEs leading to discontinuation of AMG 900 (escalation 16 mg (n = 3)): 0 n (%)
All treatment-emergent AEs (escalation 16 mg (n = 3)): 3 (100) n (%)
All treatment-related AEs (escalation 16 mg (n = 3)): 3 (100) n (%)
Fatal AEs (escalation 16 mg (n = 3)): 0 n (%)
Grade ≥ 3 AEs (escalation 16 mg (n = 3)): 1 (33) n (%)
Grade ≥ 3 treatment-related AEs (escalation 16 mg (n = 3)): 1 (33) n (%)
Grade ≥ 3 treatment-related AEs: Anemia (escalation 16 mg (n = 3)): 1 (33) n (%)
Grade ≥ 3 treatment-related AEs: Diarrhea (escalation 16 mg (n = 3)): 0 n (%)
Grade ≥ 3 treatment-related AEs: Fatigue (escalation 16 mg (n = 3)): 0 n (%)
Grade ≥ 3 treatment-related AEs: Febrile neutropenia (escalation 16 mg (n = 3)): 0 n (%)
Grade ≥ 3 treatment-related AEs: Hemoglobin decreased (escalation 16 mg (n = 3)): 0 n (%)
Grade ≥ 3 treatment-related AEs: Leukopenia (escalation 16 mg (n = 3)): 1 (33) n (%)
Grade ≥ 3 treatment-related AEs: Lymphopenia (escalation 16 mg (n = 3)): 0 n (%)
Grade ≥ 3 treatment-related AEs: Nausea (escalation 16 mg (n = 3)): 0 n (%)
Grade ≥ 3 treatment-related AEs: Neutropenia (escalation 16 mg (n = 3)): 1 (33) n (%)
Grade ≥ 3 treatment-related AEs: Thrombocytopenia (escalation 16 mg (n = 3)): 0 n (%)
Grade ≥ 3 treatment-related AEs: Vomiting (escalation 16 mg (n = 3)): 0 n (%)
Grade ≥ 3 treatment-related AEs: White blood cell count decreased (escalation 16 mg (n = 3)): 0 n (%)
Grade ≥ 4 AEs (escalation 16 mg (n = 3)): 1 (33) n (%)
Serious AEs (escalation 16 mg (n = 3)): 0 n (%)
AEs leading to discontinuation of AMG 900 (escalation 24 mg (n = 6)): 1 (17) n (%)
All treatment-emergent AEs (escalation 24 mg (n = 6)): 6 (100) n (%)
All treatment-related AEs (escalation 24 mg (n = 6)): 5 (83) n (%)
Fatal AEs (escalation 24 mg (n = 6)): 0 n (%)
Grade ≥ 3 AEs (escalation 24 mg (n = 6)): 5 (83) n (%)
Grade ≥ 3 treatment-related AEs (escalation 24 mg (n = 6)): 5 (83) n (%)
Grade ≥ 3 treatment-related AEs: Anemia (escalation 24 mg (n = 6)): 0 n (%)
Grade ≥ 3 treatment-related AEs: Diarrhea (escalation 24 mg (n = 6)): 0 n (%)
Grade ≥ 3 treatment-related AEs: Fatigue (escalation 24 mg (n = 6)): 0 n (%)
Grade ≥ 3 treatment-related AEs: Febrile neutropenia (escalation 24 mg (n = 6)): 0 n (%)
Grade ≥ 3 treatment-related AEs: Hemoglobin decreased (escalation 24 mg (n = 6)): 0 n (%)
Grade ≥ 3 treatment-related AEs: Leukopenia (escalation 24 mg (n = 6)): 2 (33) n (%)
Grade ≥ 3 treatment-related AEs: Lymphopenia (escalation 24 mg (n = 6)): 1 (17) n (%)
Grade ≥ 3 treatment-related AEs: Nausea (escalation 24 mg (n = 6)): 0 n (%)
Grade ≥ 3 treatment-related AEs: Neutropenia (escalation 24 mg (n = 6)): 4 (67) n (%)
Grade ≥ 3 treatment-related AEs: Thrombocytopenia (escalation 24 mg (n = 6)): 0 n (%)
Grade ≥ 3 treatment-related AEs: Vomiting (escalation 24 mg (n = 6)): 0 n (%)
Grade ≥ 3 treatment-related AEs: White blood cell count decreased (escalation 24 mg (n = 6)): 0 n (%)
Grade ≥ 4 AEs (escalation 24 mg (n = 6)): 3 (50) n (%)
Serious AEs (escalation 24 mg (n = 6)): 1 (17) n (%)
AEs leading to discontinuation of AMG 900 (escalation 25 mg (n = 7)): 2 (29) n (%)
All treatment-emergent AEs (escalation 25 mg (n = 7)): 7 (100) n (%)
All treatment-related AEs (escalation 25 mg (n = 7)): 5 (71) n (%)
Fatal AEs (escalation 25 mg (n = 7)): 1 (14) n (%)
Grade ≥ 3 AEs (escalation 25 mg (n = 7)): 3 (43) n (%)
Grade ≥ 3 treatment-related AEs (escalation 25 mg (n = 7)): 2 (29) n (%)
Grade ≥ 3 treatment-related AEs: Anemia (escalation 25 mg (n = 7)): 2 (29) n (%)
Grade ≥ 3 treatment-related AEs: Diarrhea (escalation 25 mg (n = 7)): 0 n (%)
Grade ≥ 3 treatment-related AEs: Fatigue (escalation 25 mg (n = 7)): 0 n (%)
Grade ≥ 3 treatment-related AEs: Febrile neutropenia (escalation 25 mg (n = 7)): 0 n (%)
Grade ≥ 3 treatment-related AEs: Hemoglobin decreased (escalation 25 mg (n = 7)): 1 (14) n (%)
Grade ≥ 3 treatment-related AEs: Leukopenia (escalation 25 mg (n = 7)): 1 (14) n (%)
Grade ≥ 3 treatment-related AEs: Lymphopenia (escalation 25 mg (n = 7)): 0 n (%)
Grade ≥ 3 treatment-related AEs: Nausea (escalation 25 mg (n = 7)): 0 n (%)
Grade ≥ 3 treatment-related AEs: Neutropenia (escalation 25 mg (n = 7)): 1 (14) n (%)
Grade ≥ 3 treatment-related AEs: Thrombocytopenia (escalation 25 mg (n = 7)): 0 n (%)
Grade ≥ 3 treatment-related AEs: Vomiting (escalation 25 mg (n = 7)): 0 n (%)
Grade ≥ 3 treatment-related AEs: White blood cell count decreased (escalation 25 mg (n = 7)): 0 n (%)
Grade ≥ 4 AEs (escalation 25 mg (n = 7)): 2 (29) n (%)
Serious AEs (escalation 25 mg (n = 7)): 1 (14) n (%)
AEs leading to discontinuation of AMG 900 (escalation 30 mg (n = 6)): 4 (67) n (%)
All treatment-emergent AEs (escalation 30 mg (n = 6)): 6 (100) n (%)
All treatment-related AEs (escalation 30 mg (n = 6)): 6 (100) n (%)
Fatal AEs (escalation 30 mg (n = 6)): 0 n (%)
Grade ≥ 3 AEs (escalation 30 mg (n = 6)): 6 (100) n (%)
Grade ≥ 3 treatment-related AEs (escalation 30 mg (n = 6)): 4 (67) n (%)
Grade ≥ 3 treatment-related AEs: Anemia (escalation 30 mg (n = 6)): 0 n (%)
Grade ≥ 3 treatment-related AEs: Diarrhea (escalation 30 mg (n = 6)): 0 n (%)
Grade ≥ 3 treatment-related AEs: Fatigue (escalation 30 mg (n = 6)): 0 n (%)
Grade ≥ 3 treatment-related AEs: Febrile neutropenia (escalation 30 mg (n = 6)): 0 n (%)
Grade ≥ 3 treatment-related AEs: Hemoglobin decreased (escalation 30 mg (n = 6)): 0 n (%)
Grade ≥ 3 treatment-related AEs: Leukopenia (escalation 30 mg (n = 6)): 3 (50) n (%)
Grade ≥ 3 treatment-related AEs: Lymphopenia (escalation 30 mg (n = 6)): 0 n (%)
Grade ≥ 3 treatment-related AEs: Nausea (escalation 30 mg (n = 6)): 0 n (%)
Grade ≥ 3 treatment-related AEs: Neutropenia (escalation 30 mg (n = 6)): 4 (67) n (%)
Grade ≥ 3 treatment-related AEs: Thrombocytopenia (escalation 30 mg (n = 6)): 1 (17) n (%)
Grade ≥ 3 treatment-related AEs: Vomiting (escalation 30 mg (n = 6)): 0 n (%)
Grade ≥ 3 treatment-related AEs: White blood cell count decreased (escalation 30 mg (n = 6)): 0 n (%)
Grade ≥ 4 AEs (escalation 30 mg (n = 6)): 6 (100) n (%)
Serious AEs (escalation 30 mg (n = 6)): 3 (50) n (%)
AEs leading to discontinuation of AMG 900 [2]: 1 (17) n (%)
All treatment-emergent AEs [2]: 6 (100) n (%)
All treatment-related AEs [2]: 6 (100) n (%)
Fatal AEs [2]: 0 n (%)
Grade ≥ 3 AEs [2]: 5 (83) n (%)
Grade ≥ 3 treatment-related AEs [2]: 3 (50) n (%)
Grade ≥ 3 treatment-related AEs: Anemia [2]: 1 (17) n (%)
Grade ≥ 3 treatment-related AEs: Diarrhea [2]: 0 n (%)
Grade ≥ 3 treatment-related AEs: Fatigue [2]: 0 n (%)
Grade ≥ 3 treatment-related AEs: Febrile neutropenia [2]: 0 n (%)
Grade ≥ 3 treatment-related AEs: Hemoglobin decreased [2]: 0 n (%)
Grade ≥ 3 treatment-related AEs: Leukopenia [2]: 2 (33) n (%)
Grade ≥ 3 treatment-related AEs: Lymphopenia [2]: 0 n (%)
Grade ≥ 3 treatment-related AEs: Nausea [2]: 0 n (%)
Grade ≥ 3 treatment-related AEs: Neutropenia [2]: 3 (50) n (%)
Grade ≥ 3 treatment-related AEs: Thrombocytopenia [2]: 2 (33) n (%)
Grade ≥ 3 treatment-related AEs: Vomiting [2]: 0 n (%)
Grade ≥ 3 treatment-related AEs: White blood cell count decreased [2]: 0 n (%)
Grade ≥ 4 AEs [2]: 2 (33) n (%)
Serious AEs [2]: 3 (50) n (%)
AEs leading to discontinuation of AMG 900 [3]: 0 n (%)
All treatment-emergent AEs [3]: 3 (100) n (%)
